In US10538555B2, “Macrocyclic inhibitors of the PD-1/PD-L1 and CD80(B7-1)/PD-L1 protein/protein interactions” (BRISTOL-MYERS SQUIBB COMPANY, priority 2014, dated 2020) one finds IC50 data, which are given here for six compounds.

*1 amine or outer side, *2 acyl side, *3 side chain or, on linkers, in order; H or OH if unused. Where a SMILES comes first, the peptide text is derived from it. Bridges are numbered along the chain shown (N, C = ends). [ ]: non-standard residue; d: D form. ξ: configuration not given here. Phe(3,4,5-F3) = N[C@@H](Cc1cc(F)c(F)c(F)c1)C(=O)O; Trp(5-OH) = N[C@@H](Cc1c[nH]c2ccc(O)cc12)C(=O)O; NMeY = CN[C@@H](Cc1ccc(O)cc1)C(=O)O; Hyp = O=C(O)[C@@H]1C[C@@H](O)CN1; NMeF = CN[C@@H](Cc1ccccc1)C(=O)O; X1 = O=C([C@H]1COCCN1[*:1])[*:2]; NMehSer = CN[C@@H](CCO)C(=O)O; NMeNle = CCCC[C@H](NC)C(=O)O; hSer = N[C@@H](CCO)C(=O)O; NMeA = CN[C@@H](C)C(=O)O; dThz = O=C(O)[C@H]1CSCN1; Dab = NCC[C@H](N)C(=O)O; Dap = NC[C@H](N)C(=O)O; ξC = NC(CS)C(=O)O

T1 sequence (Q9NZQ7 with tags, fused parts or gaps): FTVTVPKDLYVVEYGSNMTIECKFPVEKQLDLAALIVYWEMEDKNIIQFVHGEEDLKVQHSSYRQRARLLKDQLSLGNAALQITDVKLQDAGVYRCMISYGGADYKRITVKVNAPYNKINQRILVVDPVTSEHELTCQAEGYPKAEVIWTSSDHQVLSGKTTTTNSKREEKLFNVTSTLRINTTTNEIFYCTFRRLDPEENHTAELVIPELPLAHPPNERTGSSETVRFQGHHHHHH

The assay concerns the target T1, Human PD-L1/PD-1 (Homo sapiens, UniProt Q9NZQ7).
T1 construct: TVMV protease cleavage site (C); made in house; host or cells: HEK293T cells
As to the kind of experiment: HTRF Human PD-L1/PD-1 binding assay (PD-1-Ig/PD-L1-His). As to conditions: PD-L1-His 10 nM, PD-1-Ig 20 nM; class symbol; read-out: HTRF Human PD-L1/PD-1 Binding Assay IC50 Range. Summed up: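 Truncated Fc-fused human PD-1 (aa 25-167) at 20 nM and His-tagged PD-L1 (aa 18-239) at 10 nM final are used, with peptides preincubated 15 min with PD-L1. Detection uses europium-cryptate anti-Ig and APC anti-His antibodies; 665/620 nm ratio.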
As to `CCCC[C@H]1C(=O)N(C)[C@@H](CCOC)C(=O)N[C@@H](CN)C(=O)N[C@H](C(=O)NCC(N)=O)CSCC(=O)N[C@@H](Cc2ccc(O)cc2)C(=O)N(C)[C@@H](C)C(=O)N[C@@H](CC(=O)O)C(=O)N2CCC[C@H]2C(=O)N[C@@H](Cc2c[nH]cn2)C(=O)N[C@@H](CCC(N)=O)C(=O)N2C[C@H](O)C[C@H]2C(=O)N[C@@H](Cc2c[nH]c3ccccc23)C(=O)N[C@@H](CO)C(=O)N[C@@H](Cc2c[nH]c3ccccc23)C(=O)N1C` [Example 10145] ({CH2CO}-Y[NMeA]DPHQ[Hyp]WSW[NMeNle][NMehSer](Me)[Dap]CG-NH2; thioether N-14), the IC50 was 1 to 9.9 nM. In the case of `CCCC[C@H]1C(=O)N2CCC[C@@H]2C(=O)N[C@@H](CC(=O)O)C(=O)N[C@@H](C(C)C)C(=O)N(C)[C@@H](Cc2ccccc2)C(=O)N[C@@H](CCC(=O)O)C(=O)N2CCOC[C@@H]2C(=O)N[C@@H](Cc2c[nH]c3ccccc23)C(=O)N[C@@H](Cc2ccc(O)cc2)C(=O)N[C@@H](CC(C)C)C(=O)N[C@H](C(=O)NCC(N)=O)CSCC(=O)N[C@@H](Cc2cc(F)c(F)c(F)c2)C(=O)N(C)[C@@H](Cc2ccc(O)cc2)C(=O)N1C` [Example 10599] ({CH2CO}-[Phe(3,4,5-F3)][NMeY][NMeNle][dP]DV[NMeF]E[X1]WYLCG-NH2; thioether N-13), the IC50 is 1 to 9.9 nM. To `CCCC[C@H]1C(=O)N[C@@H](CC(N)=O)C(=O)N2CCC[C@H]2C(=O)N[C@@H](CO)C(=O)N[C@@H](CCO)C(=O)N2C[C@H](O)C[C@H]2C(=O)N[C@@H](Cc2c[nH]c3ccccc23)C(=O)N[C@@H](CO)C(=O)N[C@@H](Cc2c[nH]c3ccccc23)C(=O)N(C)[C@@H](C)C(=O)N(C)[C@@H](C)C(=O)N[C@@H](CCC(=O)O)C(=O)NC(C(=O)NCC(N)=O)CSCC(=O)N[C@@H](Cc2ccc(O)cc2)C(=O)N1C` (stereo partly drawn) [Example 10212] ({CH2CO}-Y[NMeNle]NPS[hSer][Hyp]WSW[NMeA][NMeA]E[ξC]G-NH2; thioether N-14) belongs 1000 to 10000 nM; to `CCCC[C@H]1C(=O)N(C)[C@@H](CCCC)C(=O)N[C@@H](CCC(=O)O)C(=O)N[C@H](C(=O)NCC(N)=O)CSCC(=O)N[C@@H](Cc2ccc(OC)cc2)C(=O)N(C)[C@@H](C)C(=O)N[C@@H](CC(N)=O)C(=O)N2CCC[C@H]2C(=O)N[C@@H](Cc2cnc[nH]2)C(=O)N[C@@H](CCC(=O)O)C(=O)N2C[C@H](O)C[C@H]2C(=O)N[C@@H](Cc2c[nH]c3ccccc23)C(=O)N[C@@H](CC(=O)O)C(=O)N[C@@H](Cc2c[nH]c3ccccc23)C(=O)N1C` [Example 7124] ({CH2CO}-Y(Me)[NMeA]NPHE[Hyp]WDW[NMeNle][NMeNle]ECG-NH2; thioether N-14), 10 to 99.9 nM; to `CCCC[C@H]1C(=O)N(C)[C@@H](CCCC)C(=O)N[C@@H](CCC(=O)O)C(=O)N[C@H](C(=O)NCC(N)=O)CSCC(=O)N[C@@H](Cc2ccc(OC)cc2)C(=O)N(C)[C@@H](C)C(=O)N[C@@H](CC(=O)O)C(=O)N2CCC[C@H]2C(=O)N[C@@H](CN)C(=O)N[C@@H](CCC(=O)O)C(=O)N2C[C@H](O)C[C@H]2C(=O)N[C@@H](Cc2c[nH]c3ccccc23)C(=O)N[C@@H](CCN)C(=O)N[C@@H](Cc2c[nH]c3ccc(O)cc23)C(=O)N1C` [Example 7152] ({CH2CO}-Y(Me)[NMeA]DP[Dap]E[Hyp]W[Dab][Trp(5-OH)][NMeNle][NMeNle]ECG-NH2; thioether N-14), 10 to 99.9 nM.

As for `CCCC[C@H]1C(=O)N2CCC[C@@H]2C(=O)N[C@@H](CC(=O)O)C(=O)N[C@@H](C(C)C)C(=O)N(C)[C@@H](Cc2ccccc2)C(=O)N[C@@H](Cc2ccc(O)cc2)C(=O)N2CSC[C@@H]2C(=O)N[C@@H](Cc2c[nH]c3ccccc23)C(=O)N[C@@H](Cc2ccc(O)cc2)C(=O)N[C@@H](CC(C)C)C(=O)N[C@H](C(=O)NCC(N)=O)CSCC(=O)N[C@@H](Cc2cc(F)c(F)c(F)c2)C(=O)N(C)[C@@H](Cc2ccccc2)C(=O)N1C` [Example 10092] ({CH2CO}-[Phe(3,4,5-F3)][NMeF][NMeNle][dP]DV[NMeF]Y[dThz]WYLCG-NH2; thioether N-13), the IC50 is 1 to 9.9 nM.
